Data on 9 compounds can be found in article PMC8000395, “Effective Small Molecule Antibacterials from a Novel Anti-Protein Secretion Screen” (Microorganisms, 2021).

Where “and” joins values, the source holds several entries; their conditions need not be identical. Identical values can stand only once. Like-named read-outs stand apart in the source and are kept apart here.

In one data set the test system is E. coli MG1655 LolA. More on the design: method as in PMID 23473681. The conditions noted are these: read-out: IC50 against E. coli MG1655 LolA; cited from earlier work.
Data set [1] relates to PhoA secretion in E. coli MC4100. Nature of the data set: microbe, parasite or virus in culture. The data set is classed as cell-based. The conditions noted are these: for IC50: Escherichia coli, PNPP colorimetric lab-scale assay, read-out: Inhibition of PhoA Secretion IC50, Lab-Scale.
The test system of a further data set is B. subtilis ATCC6633. Put plainly: Antimicrobial activity test (growth, OD600). It is filed as cell-based. The note with it: for IC50: Bacillus subtilis, ATCC6633, 20 h, 37 °C, OD600, read-out: Bacterial Viability IC50, B. subtilis ATCC6633.
For another data set, the system named is E. coli MC4100. Nature of the data set: Antimicrobial activity test (growth, OD600). It is filed as cell-based. The note with it: for IC50: Escherichia coli, MC4100, 20 h, 37 °C, OD600, read-out: Bacterial Viability IC50, E. coli MC4100.
The test system of the next data set is E. coli. The conditions noted are these: cited from earlier work.
The test system of a further data set is E. coli strains. Nature of the data set: Antimicrobial activity test, E. coli strains (strain not given with the value). The data set is classed as cell-based. The conditions noted are these: for IC50: strain not given, read-out: Growth inhibition IC50, E. coli strains.
Data set [2] concerns PhoA secretion in E. coli strain BL21 (pLysS). Nature of the data set: Luminescence-based HTS assay of in vivo PhoA secretion. It is filed as cell-based. The note with it: for IC50: Escherichia coli, BL21, luminescence-based HTS assay, E. coli BL21, read-out: Inhibition of PhoA Secretion IC50, HTS.
For a further data set, the system named is Gram-positive bacteria. Put plainly: Antimicrobial activity test, summary over Gram-positive bacteria. The note with it: most Gram-positive bacteria. It is filed as cell-based.
Another data set concerns E. coli BL21. Put plainly: Antimicrobial activity test (growth, OD600). The data set is classed as cell-based. The conditions noted are these: for IC50: Escherichia coli, BL21, BL21, 20 h, 37 °C, OD600, read-out: Bacterial Viability IC50, E. coli BL21.
Data set [3] in a line: Turbidimetric kinetic aqueous solubility assay. The conditions noted are these: pH 7, aqueous buffer, kinetic from dmso stock, turbidimetry 570 nm, PBS pH 7–7.2, 0.5% DMSO, 1 h; read-out: Aqueous Solubility (soluble at). The data set is classed as physicochemical. The protocol: The determination of the aqueous solubility of compounds in this assay is based on the principle of turbidimetry. Turbidimetric methods rely on the measurement of light scattering from precipitate in solution to determine the solubility. Precipitation is identified by an absorbance increase due to blockage of the light by the particles at the wavelength of 570 nm. Compounds, stored in matrix vials (Thermo Fisher) at a stock concentration of 30 mM or 10 mM in 100% Dimethyl sulfoxide (DMSO), were used to make a serial dilution (dose-response) in a 96-well v-bottom propylene plate (Greiner, 651201). Serial dilutions are made to perform the solubility assay; they were made row-wise and start with undiluted compound (30 mM or 10 mM) in the first well and were then 1 over 3 diluted further on. The serial dilutions were eight doses long and contain six compounds per plate maximal (rows B-G). Columns 1 and 12 were filled with 100% DMSO for control purposes. The dose-response plates were 200-times diluted in 300 µL Phosphate Buffered Saline (PBS; pH = 7–7.2 without Ca^2+/Mg^2+) (Gibco, 14190-144) by transferring 1.5 µL of serially diluted compound. […] Dilutions were made by diluting one 96-well plate in two 96-well, flat-bottom, polystyrene plates (Greiner, 655101). These plates were then incubated at room temperature for 1h. After 1h incubation, the plates were read on the envision (Perkin Elmer) at 570 nm.
The data of this assay is reported as “Soluble at” value for each compound. This “soluble at” value represents the concentration where the compound is still soluble and is the concentration before the first precipitated concentration. The first precipitated concentration is the concentration where the absorbance value is more than five standard deviations higher than the average background absorbance. The average background absorbance and the standard deviation are calculated on the 0.5% DMSO controls in columns 1 and 12.

The test system of a further data set is E. coli BW25113. Nature of the data set: Antimicrobial activity test (growth, OD600). The conditions noted are these: Escherichia coli, 20 h, 37 °C, read-out: Bacterial Viability IC50, E. coli BW25113. The data set is classed as cell-based.
The test system of data set [4] is PhoA secretion in BW25113ΔtolC. Nature of the data set: Lab-scale p-nitrophenyl PhoA secretion assay, ΔtolC strain. The data set is classed as cell-based, E. coli.
The test system of data set [5] is PhoA secretion in E. coli BW25113. Put plainly: Lab-scale p-nitrophenyl PhoA secretion assay, BW25113. The data set is classed as cell-based. The note with it: Escherichia coli, read-out: PhoA secretion in vivo IC50, E. coli BW25113.
In the next data set the test system is HEK293T cells. The note with it: human, 24 h. On the procedure: Hek293T cells were harvested and diluted obtaining a cell suspension with a concentration of 200,000 cells/mL in complete growth medium (DMEM, 4.5 g/L d-glucose, pyruvate 1 mM, 0.075% bicarbonate and 10% Fetal Bovine serum). Of this cell suspension, 50 µL (10,000/well) was seeded in a 384 well culture plate (white polystyrene, tissue culture treated) and incubated at 37 °C-5% CO2 for 4 h in a moisturized incubator, which enables the cells to adhere. After the incubation, small chemical compounds were diluted in medium and 10 µL of a compound solution was added onto the cells, ending up with the required compound concentration. The cells were incubated for 24 h at 37 °C-5% CO2 in a moisturized incubator where after × µL medium was removed to equalize the liquid levels within one plate ending up with ±25 µL/well. The amount of remaining cells/well was determined with ATPlite^TM 1step (Perkin Elmer) Adenosine TriPhosphate (ATP) monitoring system, which is based on firefly luciferase.
The cytotoxicity was calculated by subtracting RLU (relative light units) obtained from the cells incubated with a compound from the RLUs obtained from cells in the presence of the vehicle.
The cytotoxic effect of a test compound was determined as:
Percent cell death = [1−((RLU determined for sample with test compound present—1) divided by (RLU determined in the presence of vehicle—1))] * 100.

Data set [6] deals with Gram-negative and Gram-positive bacteria. Put plainly: Antimicrobial activity test, summary over Gram-negative and Gram-positive bacteria. The data set is classed as cell-based. The note with it: 19 Gram-negative and Gram-positive species evaluated.
The next data set has as its system E. coli BW25113ΔtolC. Nature of the data set: Antimicrobial activity test (growth, OD600). The note with it: for IC50: Escherichia coli, read-out: Viability IC50, BW25113ΔtolC, E. coli strain missing TolC; for Higher sensitivity of ΔtolC and imp-2413+ derivatives compared to BW25113: viability, Figure 5A.
The test system of data set [7] is E. coli BW25113::imp-2413+. Put plainly: Antimicrobial activity test (growth, OD600). The note with it: Escherichia coli, BW25113, read-out: Viability IC50, BW25113::imp-2413+.
The subject of data set [8] is Staphylococcus aureus ATC6538P. Nature of the data set: Antimicrobial activity test (growth, OD600). The note with it: read-out: Bacterial Viability (IC50). It is filed as cell-based.
Setting [9] is: Escherichia coli, read-out: Inhibition of PhoA Secretion IC50, Lab-Scale (ΔtolC strain), BW25113ΔtolC, p-nitrophenyl assay.
Setting [10] is: E. coli BL21, MC4100 or BW25113.
Where [11] appears, read: Escherichia coli, BW25113, BL21, E. coli BL21, MC4100 or BW25113.
[12] abbreviates: Staphylococcus aureus, ATC6538P.

Broadly, the IC50 is the concentration that inhibits the measured activity by half. `N=C(N)SCc1ccc(Cl)c(Cl)c1` [A22, S-(3,4-dichlorobenzyl)isothiourea]: the IC50 with E. coli MG1655 LolA is 200 µM.
Turning to `[N-]=[N+]=[N-].[Na+]` [CC#01, Sodium azide, reference compound], in [1] (sodium azide, Figure 2A, assay format not stated), the “Level of secreted PhoA remaining” value is reported as ~ 17%. Besides, in the data set on B. subtilis ATCC6633 (NaN3 control), the “Bacterial Viability, B. subtilis ATCC6633 (value indicates MIC not IC50)” value was >100000 µM. The “Bacterial Viability, E. coli MC4100 (value indicates MIC not IC50)” value with E. coli MC4100 (NaN3 control) was 4000 µM. In the data set with E. coli, the “Antibacterial concentration for E. coli” value was 3 to 4.6 mM. For the same compound, in the data set on E. coli strains (at 4 mM), the “Growth inhibition of E. coli” value was ~ 80%. Moreover, the “Inhibition of secreted phosphatase activity” value in [2] (HTS assay conditions, sodium azide 4 mM positive control) is > 90%. Also, the “Concentration required for any observable inhibition of Gram-positive bacteria” value with Gram-positive bacteria is on record as > 100 mM. Besides, the “Bacterial Viability, E. coli BL21 (value indicates MIC not IC50)” value in the data set with E. coli BL21 (NaN3 control) came to 4000 µM.
In general, solubility refers to the concentration that dissolves in the medium under given conditions. As to `CN(C)c1c(C(=O)O)cnc2ccccc12` [HSI#07], the solubility at 1 h in [3] is 150 µM and 32.4 µg/mL. The IC50 in the data set with E. coli BW25113 is > 100 µM; in data set [1], 26.4 µM; in the data set with B. subtilis ATCC6633 it was > 100 µM; in data set [4] (setting [9]), 19.9 µM; in [5], 19 µM; in the data set with E. coli MC4100, > 100 µM. The IC50 is 19 µM in data set [2] and > 100 µM with E. coli BL21. Further, in the data set with HEK293T cells, the “Toxicity of Mammalian Cells (HEK293T) LD50” value (“Toxicity of Mammalian Cells” below) amounted to 60.2 µM.
On to `O=C(O)c1cnc2ccc(Cl)cc2c1O` [HSI#12], for which the Antibacterial character result in data set [6] is on record as “bacteriocidal”. The solubility at 1 h in data set [3] was 50 µM and 11.8 µg/mL. The half-maximal inhibitory concentration (IC50) is 39.7 µM in the data set on E. coli BW25113; 11.2 µM in data set [1]; > 100 µM with B. subtilis ATCC6633; 26 µM in [4] (setting [9]); 19 µM in [5]; > 100 µM with E. coli MC4100. In addition, the IC50 was < 65 µM and > 45 µM in the data set with E. coli strains (setting [10]); 44 to 65 µM in the data set with E. coli strains (setting [11]); 11.5 µM in data set [2]; 23.3 µM in the data set on E. coli BW25113ΔtolC; 60 µM in the data set with E. coli BL21; 41.4 µM in data set [7]. The “Higher sensitivity of ΔtolC and imp-2413+ derivatives compared to BW25113” value in the data set with E. coli BW25113ΔtolC is 2 to 40 times. Also, in the data set on HEK293T cells, the “Toxicity of Mammalian Cells” value was 60.2 µM.
With `O=C(O)c1cnc2cc(Cl)ccc2c1O` [HSI#14], in data set [6], the Antibacterial character entry is listed as “bacteriocidal”. Besides, the solubility at 1 h in data set [3] is 150 µM and 33.5 µg/mL. Further, the IC50 in the data set on E. coli BW25113 was 31.3 µM; in [1], 14.6 µM; in the data set on B. subtilis ATCC6633, > 100 µM; in data set [4] (setting [9]) it was 11.5 µM; in data set [4] (read-out: Inhibition of PhoA Secretion IC50, Lab-Scale (ΔtolC strain), BW25113ΔtolC, p-nitrophenyl assay), 11.5 µM; in data set [5], 13.5 µM. The IC50 with E. coli MC4100 was > 100 µM; with E. coli strains (setting [10]), < 65 µM and > 45 µM; in the data set with E. coli strains (setting [11]), 44 to 65 µM; in data set [2] it was 13.4 µM; in the data set with E. coli BW25113ΔtolC, 17.2 µM; with E. coli BL21 it was > 100 µM. Moreover, the half-maximal inhibitory concentration (IC50) in data set [7] turned out to be 36.2 µM. Besides, the “Higher sensitivity of ΔtolC and imp-2413+ derivatives compared to BW25113” value in the data set on E. coli BW25113ΔtolC is 2 to 40 times. For the same compound, in the data set with HEK293T cells, the “Toxicity of Mammalian Cells” value is on record as 60.2 µM.
For the compound `N=C(N)SCc1ccc(Cl)cc1` [S-(4-chlorobenzyl)isothiourea], the concentration for half-maximal inhibition (IC50) in the data set on E. coli MG1655 LolA is 150 µM.
With `CC1(C)S[C@@H]2[C@H](NC(=O)[C@H](N)c3ccccc3)C(=O)N2[C@H]1C(=O)O` [ampicillin, reference compound], the concentration for half-maximal inhibition (IC50) in data set [8] (Staphylococcus aureus ATC6538P) amounted to 0.01 µM.
Regarding `CC1(C)S[C@@H]2[C@H](NC(=O)Cc3ccccc3)C(=O)N2[C@H]1C(=O)O` [penicillin G, reference compound], the IC50 in data set [8] (setting [12]) is 0.5 µM.
As for `CN[C@H](CC(C)C)C(=O)N[C@H]1C(=O)N[C@@H](CC(N)=O)C(=O)N[C@H]2C(=O)N[C@H]3C(=O)N[C@H](C(=O)N[C@H](C(=O)O)c4cc(O)cc(O)c4-c4cc3ccc4O)[C@H](O)c3ccc(c(Cl)c3)Oc3cc2cc(c3O[C@@H]2O[C@H](CO)[C@@H](O)[C@H](O)[C@H]2O[C@H]2C[C@](C)(N)[C@H](O)[C@H](C)O2)Oc2ccc(cc2Cl)[C@H]1O` [vancomycin, reference compound], the IC50 in [8] (setting [12]) turned out to be 17 µM.
